# Experimental data published in publication PMC4841555, “Optimization of the All-D Peptide D3 for Aβ Oligomer Elimination” (PLoS ONE, 2016).
# Non-standard residues stand in square brackets, D forms with d. Residues, ends and D or L forms follow the SMILES beside them.
# Columns and labels:
# Assay type in all cases: biochemical
# [1] = target: T1, Aβ(1–42) (Homo sapiens, UniProt P05067); test: Aβ aggregation inhibition ELISA; settings: 400 nM Aβ(1–42), 500 mM Tris pH 7.4, 23 h, 37°C, aggregate-specific ELISA, logistic fit, three independent experiments; read-out: EC50 of inhibition of Aβ aggregate formation
# T1 construct: Aβ(1–42), N-terminally biotinylated Aβ(1–42) and FITC-Aβ(1–42) were purchased from Bachem; purchased Bachem (Heidelberg, Germany)
# T1 sequence (P05067 672-713 limits assumed): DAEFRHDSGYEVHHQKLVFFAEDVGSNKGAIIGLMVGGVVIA
# Protocol: Freshly dissolved monomeric Aβ(1–42) (400 nM in 500 mM Tris-buffer pH 7.4) was incubated with and without DB peptides in different concentrations (0.01, 0.05, 0.1, 0.5, 1, 5, 10, 50 and 100 μM for DB3 or half of the molar concentrations in case of DB3DB3) in a humidity chamber for 23 h at 37°C. The aggregation was analyzed by an enzyme-linked immunosorbent assay (ELISA). NP27 antibody in bicarbonate/carbonate buffer was used to coat the ELISA plate overnight. Then the plate was washed in PBS-Tween buffer (1x PBS + 0.05% Tween) and blocked for 2 h at room temperature with 5% casein buffer. After washing, Aβ aggregate solutions were added to the plate and incubated for 1 h at room temperature. The plate was washed again and bound Aβ aggregates were detected by biotinylated 6E10/HRP-avidin mediated immunoreaction (BioLegend, San Diego, CA USA) using TMB as detection reagent. […] Mean value and standard error were calculated from three independent experiments. EC50 was calculated by fitting the data to a logistic dose response function.
# Fig 5 Inhibition of Aβ fibril formation and Aβ aggregation disassemble by DB3 and DB3DB3. A) Monomeric Aβ(1–42) (400 nM) was mixed with different concentrations of DB3 (0.01, 0.05, 0.1, 0.5, 1, 5, 10, 50, 100 μM) and the aggregation state of Aβ was analyzed using an Aβ aggregate specific ELISA. […] All data were determined in triplicate. […]
# [2] = target: T2, preformed Aβ(1–42) aggregates (Homo sapiens, UniProt P05067); test: Aβ aggregate disassembly ELISA; settings: 400 nM Aβ(1–42) preincubated 22 h at 37°C, then with peptide 22 h (24 h) at 37°C, ELISA, triplicate
# T2 construct: Aβ(1–42), N-terminally biotinylated Aβ(1–42) and FITC-Aβ(1–42) were purchased from Bachem; purchased Bachem (Heidelberg, Germany)
# T2 sequence (P05067 672-713 limits assumed): as above
# Protocol: Freshly dissolved monomeric Aβ(1–42) (400 nM in 500 mM Tris-buffer pH 7.4) was incubated in a humidity chamber for 22 h at 37°C in order to preform Aβ(1–42) aggregates. These preformed aggregates were coincubated with D-peptide in different concentrations (0.01, 0.05, 0.1, 0.5, 1, 5, 10, 50, 100 μM for DB3 or with half of the molar concentrations in case of DB3DB3) for additional 22 h at 37°C. The content of Aβ aggregates was measured and evaluated in the same way as the aggregation inhibition ELISA.
# Fig 5 Inhibition of Aβ fibril formation and Aβ aggregation disassemble by DB3 and DB3DB3. A) Monomeric Aβ(1–42) (400 nM) was mixed with different concentrations of DB3 (0.01, 0.05, 0.1, 0.5, 1, 5, 10, 50, 100 μM) and the aggregation state of Aβ was analyzed using an Aβ aggregate specific ELISA. For DB3DB3 half of the molar concentrations compared to DB3 were used. Aβ without DB3 and DB3DB3 addition was taken as control. For DB3 an EC50 of 6 μM was calculated using a logistic fit model. DB3DB3 inhibited the formation of Aβ fibrils more efficiently with an EC50 of 7 nM. B) The disassembly properties of DB3 and DB3DB3 were measured using an Aβ aggregation specific ELISA. Monomeric Aβ(1–42) (400 nM) was preincubated in order to form fibrils and mixed with nine different concentrations of DB3 (0.01, 0.05, 0.1, 0.5, 1, 5, 10, 50, 100 μM). For DB3DB3, the molar concentrations were half those used for DB3. […] DB3DB3 disassembled Aβ aggregates at the lowest concentration […]. Thus, the EC50 could not be determined, but is < 10 nM. All data were determined in triplicate. The Mann-Whitney-U-test was performed for statistical analysis. * p< 0.05; ** p < 0.01; *** p < 0.001
# The Aβ aggregate disassembly ELISA was used to analyze the effect of DB3 and DB3DB3 on preformed Aβ aggregates (Fig 5B). […] The Aβ aggregates specific ELISA was used to quantify Aβ aggregates. […] The results of measured Aβ aggregates normalized to the Aβ control were plotted against the peptide concentration. The EC50 was calculated by a logarithmic dose response function.
# [3] = target: T3, Aβ(1–42) oligomers (Homo sapiens, UniProt P05067); test: QIAD assay (Aβ oligomer elimination); settings: 20 μM DB3, 80 μM Aβ(1–42) preincubated 4.5 h, 40 min with peptide, density gradient centrifugation, RP-HPLC, vs Aβ only control, triplicate
# T3 construct: Aβ(1–42), N-terminally biotinylated Aβ(1–42) and FITC-Aβ(1–42) were purchased from Bachem; purchased Bachem (Heidelberg, Germany)
# T3 sequence (P05067 672-713 limits assumed): as above
# Protocol: The quantitative determination of interference with Aβ(1–42) aggregate size distribution (QIAD) was performed as described before. In brief, 80 μM Aβ(1–42) was incubated in 10 mM sodium phosphate buffer, pH 7.4 for 4.5 h at 22°C with 600 rpm agitation. Aβ(1–42) aggregation was continued for an additional 40 min with or without DB peptide. The obtained partial size distribution was analyzed by applying density gradient centrifugation. 100 μl of the incubated sample was placed on top of a gradient with 5 to 50% iodixanol (Optiprep, Axis-shield, Oslo, Norway) and separated at 259.000 x g for 3 h at 4°C using an ultracentrifuge (Optima MAX-XP, Beckman Coulter, Brea, USA). Fourteen fractions of 140 μl were taken from top to bottom. […] For quantification of the Aβ(1–42) amount in each fraction, reversed-phase high performance liquid chromatography (RP-HPLC) was performed using a Zorbax SB-300 C8 column (Agilent, Böblingen, Germany) connected to an Agilent 1260 Infinity system using 30% (v/v) acetonitrile with 0.1% (v/v) trifluoroacetic acid (TFA) as the mobile phase with a flow of 1 ml/min and a column temperature of 80°C. […] The UV absorption at 214 nm was measured. For quantification of the Aβ(1–42) amount, the area under the peak representing Aβ(1–42) was calculated and the molar concentration was determined using a calibration curve. […]
smiles,measurement,setting,value
CC[C@@H](C)[C@@H](NC(=O)[C@H]1CCCN1C(=O)[C@H](N)CCCNC(=N)N)C(=O)N[C@@H](C(=O)N[C@H](CCCNC(=N)N)C(=O)N[C@H](CC(C)C)C(=O)N[C@H](CCCNC(=N)N)C(=O)N[C@@H](C(=O)N[C@H](Cc1c[nH]cn1)C(=O)N[C@H](CCC(N)=O)C(=O)N[C@H](CC(N)=O)C(=O)N[C@H](CCCNC(=N)N)C(N)=O)[C@H](C)O)[C@H](C)O [DB3] (H-[dR][dP][dI][dT][dR][dL][dR][dT][dH][dQ][dN][dR]-NH2),EC50,[1],6 µM
same,EC50,[2],2.5 µM
same,reduction of the amount of Aβ oligomers,[3],~ 27%
